Test results as given in the supplement of paper PMC8617591.

What was measured:
[1] = tested on: Mycobacterium tuberculosis Erdman (autoluminescent); test: FIC90 (Loewe) at 90% inhibition (log2); higher = more antagonistic
Method: (§1)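 DiaMOND equipotent two-drug combination dose responses against autoluminescent M. tuberculosis Erdman in 8 in vitro models. Read-out is OD600, or luminescence for the intracellular and dormancy models, normalised to untreated wells. Hill-fit Einf, AUC25 and GRinf are potency metrics; FIC50 and FIC90 are Loewe-additivity fractional inhibitory concentrations, given as log2 (negative = synergy). Replicates are averaged.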

[2] = tested on: Mycobacterium tuberculosis Erdman (autoluminescent); test: FIC50 (Loewe) at 50% inhibition (log2); higher = more antagonistic
Method: as §1

[3] = tested on: Mycobacterium tuberculosis Erdman (autoluminescent); test: Einf, fitted maximum growth inhibition of combination (fraction); higher = stronger maximal inhibition
Method: as §1

[4] = tested on: Mycobacterium tuberculosis Erdman (autoluminescent); test: AUC25, normalised area under dose response up to IC25 (fraction (0-1)); higher = more potent at low dose
Method: as §1

[5] = tested on: Mycobacterium tuberculosis Erdman (autoluminescent); test: GRinf, maximum normalised growth rate inhibition (unitless (-1 to 1)); higher = less effect (negative = killing)
Method: as §1

COc1nc2ccc(Br)cc2cc1[C@@H](c1ccccc1)[C@@](O)(CCN(C)C)c1cccc2ccccc12 [bedaquiline] + CO[C@H]1/C=C/O[C@@]2(C)Oc3c(C)c(O)c4c(O)c(c(/C=N/N5CCN(C6CCCC6)CC5)c(O)c4c3C2=O)NC(=O)/C(C)=C\C=C\[C@H](C)[C@H](O)[C@@H](C)[C@@H](O)[C@@H](C)[C@H](OC(C)=O)[C@@H]1C [rifapentine]
Details	AUC25, [4]	Einf, [3]	FIC50, [2]	FIC90, [1]	GRinf, [5]
in vitro model: acidic pH 5.7, time point: constant (~7 days, model-specific)	0.0995	0.969	0.322	0.172	-0.693
in vitro model: acidic pH 5.7, time point: terminal (~4-5 doublings, model-specific)	0.0881	0.998	0.392	0.396	-0.38
in vitro model: intracellular J774, time point: constant = terminal	–	0.943	–	0.658	-0.214

Details	AUC25, [4]	Einf, [3]	FIC50, [2]	FIC90, [1]	GRinf, [5]
in vitro model: butyrate, time point: constant (~7 days, model-specific)	0.0889	0.933	0.485	0.365	-0.0857
in vitro model: butyrate, time point: terminal (~4-5 doublings, model-specific)	0.0717	0.976	0.482	0.362	-0.102
in vitro model: cholesterol 0.05 mM, time point: constant (~7 days, model-specific)	0.119	0.787	0.249	–	-0.201
in vitro model: cholesterol 0.05 mM, time point: terminal (~4-5 doublings, model-specific)	0.0716	0.93	0.341	0.609	-0.223
in vitro model: cholesterol-high 0.2 mM, time point: constant (~7 days, model-specific)	0.0555	0.969	0.211	-0.159	-0.659
in vitro model: cholesterol-high 0.2 mM, time point: terminal (~4-5 doublings, model-specific)	0.0435	1	0.367	0.259	-0.615
in vitro model: dormancy (butyrate + nitrate, low O2), time point: constant (~7 days, model-specific)	0.072	0.941	0.549	1	0.16
in vitro model: dormancy (butyrate + nitrate, low O2), time point: terminal (~4-5 doublings, model-specific)	0.0609	0.981	0.481	0.635	-0.111
in vitro model: standard 7H9 glycerol, time point: constant = terminal	0.0637	0.949	0.236	0.112	-0.0779
in vitro model: valerate, time point: constant (~7 days, model-specific)	0.0652	0.899	0.621	–	-0.0573
in vitro model: valerate, time point: terminal (~4-5 doublings, model-specific)	0.0336	0.955	0.678	0.464	-0.0667

COc1nc2ccc(Br)cc2cc1[C@@H](c1ccccc1)[C@@](O)(CCN(C)C)c1cccc2ccccc12 [bedaquiline] + CO[C@H]1/C=C/O[C@@]2(C)Oc3c(C)c(O)c4c(O)c(c(/C=N/N5CCN(C)CC5)c(O)c4c3C2=O)NC(=O)/C(C)=C\C=C\[C@H](C)[C@H](O)[C@@H](C)[C@@H](O)[C@@H](C)[C@H](OC(C)=O)[C@@H]1C [rifampicin]
Details	AUC25, [4]	Einf, [3]	FIC50, [2]	FIC90, [1]	GRinf, [5]
in vitro model: acidic pH 5.7, time point: constant (~7 days, model-specific)	0.11	0.966	0.235	-0.844	-0.709
in vitro model: acidic pH 5.7, time point: terminal (~4-5 doublings, model-specific)	0.0796	0.995	0.0554	-0.216	-0.353
in vitro model: intracellular J774, time point: constant = terminal	–	0.963	–	0.648	-0.255

Details	AUC25, [4]	Einf, [3]	FIC50, [2]	FIC90, [1]	GRinf, [5]
in vitro model: butyrate, time point: constant (~7 days, model-specific)	0.112	0.958	0.393	0.174	-0.181
in vitro model: butyrate, time point: terminal (~4-5 doublings, model-specific)	0.0949	0.988	0.398	0.429	-0.18
in vitro model: cholesterol 0.05 mM, time point: constant (~7 days, model-specific)	0.104	0.722	0.0154	–	-0.0966
in vitro model: cholesterol 0.05 mM, time point: terminal (~4-5 doublings, model-specific)	0.0851	0.919	0.343	-0.364	-0.181
in vitro model: cholesterol-high 0.2 mM, time point: constant (~7 days, model-specific)	0.0637	0.982	0.194	-0.00523	-0.639
in vitro model: cholesterol-high 0.2 mM, time point: terminal (~4-5 doublings, model-specific)	0.058	1	0.318	0.223	-0.64
in vitro model: dormancy (butyrate + nitrate, low O2), time point: constant (~7 days, model-specific)	0.0984	0.921	0.234	0.896	0.149
in vitro model: dormancy (butyrate + nitrate, low O2), time point: terminal (~4-5 doublings, model-specific)	0.0644	0.985	0.332	0.603	-0.312
in vitro model: standard 7H9 glycerol, time point: constant = terminal	0.0718	0.93	0.22	0.326	-0.0375
in vitro model: valerate, time point: constant (~7 days, model-specific)	0.0727	0.914	0.714	–	-0.108
in vitro model: valerate, time point: terminal (~4-5 doublings, model-specific)	0.0313	0.956	0.779	0.467	-0.0734
